What was measured:
[1] = tested on: ECHCO (Echinochloa colona, junglerice); experiment: In-water applied weed control, transplanted paddy rice, greenhouse (Example II); type: in vivo, Echinochloa colona (L.) Link
Method: Weed seeds or nutlets of the desired test plant species were planted in puddled soil (mud) prepared by mixing a shredded, non-sterilized mineral soil (50.5 percent silt, 25.5 percent clay, and 24 percent sand, with a pH of about 7.6 and an organic matter content of about 2.9 percent) and water at a 1:1 volumetric ratio. The prepared mud was dispensed in 365 mL aliquots into 16-ounce (oz.) non-perforated plastic pots with a surface area of 86.59 square centimeters (cm^2) leaving a headspace of 3 centimeters (cm) in each pot. Rice seeds were planted in Sun Gro MetroMix® 306 planting mixture, which typically has a pH of 6.0 to 6.8 and an organic matter content of about 30 percent, in plastic plug trays. Seedlings at the second or third leaf stage of growth were transplanted into 860 mL of mud contained in 32-oz. non-perforated plastic pots with a surface area of 86.59 cm^2 4 days prior to herbicide application. The paddy was created by filling the headspace of the pots with 2.5 to 3 cm of water. When required to ensure good germination and healthy plants, a fungicide treatment and/or other chemical or physical treatment was applied. The plants were grown for 4-22 days in a greenhouse with an approximate 14 h photoperiod which was maintained at about 29′C during the day and 26° C. during the night. Nutrients were added as Osmocote® (19:6:12, N:P:K+minor nutrients) at 2 g per 16-oz. pot and 4 g per 32-oz. pot. Water was added on a regular basis to maintain the paddy flood, and supplemental lighting was provided with overhead metal halide 1000-Watt lamps as necessary. The plants were employed for testing when they reached the first through fourth true leaf stage.
Treatments consisted of the acid or esters of 4-amino-3-chloro-5-fluoro-6-(4-chloro-2-fluoro-3-methoxy-phenyl)pyridine-2-carboxylic acid (compound A) each formulated as an SC and various herbicidal components alone and in combination. Forms of compound A were applied on an acid equivalent basis.
Other herbicidal components were applied on an active ingredient basis and included acetolactate synthase (ALS)-inhibiting herbicides (sulfonylurea chemical class), azimsulfuron formulated as Gulliver®, bensulfuron-methyl formulated as Londax® 60DF, cyclosulfamuron (technical grade materail), ethoxysulfuron formulated as Sunrice® 15 WDG, flucetosulfuron formulated as Sukedachi® 1KG G, imazosulfuron formulated as Brazzos®, metsulfuron-methyl formulated as Lorate®, nicosulfuron formulated as Accent®, orthosulfamuron formulated as Strada® WG, propyrisulfuron formulated as Zeta One®, and rimsulfuron formulated as Matrix® WG.
Treatment requirements for each compound or herbicidal component were calculated based upon the rates being tested, the concentration of active ingredient or acid equivalent in the formulation, an application volume of 2 mL per component per pot, and an application area of 86.59 cm^2 per pot.
For formulated compounds, a measured amount was placed in an individual 100 or 200 mL glass vial and was dissolved in a volume of 1.25% (v/v) Agri-Dex® crop oil concentrate to obtain application solutions.
For technical grade compounds, a weighed amount was placed in an individual 100 to 200 mL glass vial and was dissolved in a volume of acetone to obtain concentrated stock solutions. […] The concentrated stock solutions obtained were diluted with an equivalent volume of an aqueous mixture containing 2.5% (v/v) crop oil concentrate so that the final application solutions contained 1.25% (v/v) crop oil concentrate.
Applications were made by injecting with a pipetter appropriate amounts of the application solutions, individually and sequentially, into the aqueous layer of the paddy. Control plants were treated in the same manner with the solvent blank. Applications were made so that all treated plant material received the same concentrations of acetone and crop oil concentrate. […]

[2] = tested on: VERPE (Veronica persica, bird's-eye speedwell); experiment: Post-emergence foliar-applied weed control in cereal crops, greenhouse (Example III); type: in vivo, Veronica persica Poir.
Method in brief: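 Greenhouse plants at the second or third true leaf stage (14 hour photoperiod, about 18/17 °C) were track-sprayed at 187 L/ha with Compound A SC, a second cereal herbicide, or their combinations, using 1.25% v/v crop oil concentrate. Injury was scored visually at 20-22 days against solvent-blank controls on a 0–100% scale. Expected mixture effects were calculated with Colby's equation.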

COc1c(Cl)ccc(-c2nc(C(=O)OCc3ccccc3)c(Cl)c(N)c2F)c1F [Compound A Benzyl Ester]
Visual Weed Control (%) - 21 DAA ECHCO Obs ([1]; Table 39, 4.38 gae/ha alone): 45%
Visual Weed Control (%) - 21 DAA ECHCO Obs ([1]; Table 39, 8.75 gae/ha alone): 30%
Visual Weed Control (%) - 21 DAA ECHCO Obs ([1]; Table 39, 17.5 gae/ha alone): 95%
Weed Control VERPE Obs ([2]; Table 51, after 20-22 days, 8.75 gai/ha alone): 50%
Weed Control VERPE Obs ([2]; Table 53, after 20-22 days, 8.75 gai/ha alone): 50%
Weed Control VERPE Obs ([2]; Table 55, after 20-22 days, 8.75 gai/ha alone): 50%
Weed Control VERPE Obs ([2]; Table 57, after 20-22 days, 8.75 gai/ha Compound A Benzyl Ester alone): 50%

From patent publication US8871681B2, “Herbicidal compositions comprising 4-amino-3-chloro-5-fluoro-6-(4-chloro-2-fluoro-3-methoxyphenyl) pyridine-2-carboxylic acid or a derivative thereof and certain sulfonylureas” (Dow AgroSciences LLC, priority 2012, dated 2014)
